Measurements published in paper PMC8909834, “An Orally Bioavailable and Highly Efficacious Inhibitor of CDK9/FLT3 for the Treatment of Acute Myeloid Leukemia” (Cancers, 2022).

Tests used:
Test in all cases: Kinase Hotspot radiolabel assay
Type in all cases: biochemical
Details in all cases: read-out: % Residual Activity
LCK2/ICK = target: T1, LCK2/ICK (Homo sapiens, UniProt Q9UPZ9)
T1 construct: purchased Reaction Biology Corporation (Kinase HotSpot)
In short: (§1)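 1 µM cpd; 369-kinase radiolabel Hotspot panel; Ki run for hits >90% inhibition.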

RIPK5 = target: T2, RIPK5 (Homo sapiens, UniProt Q6XUX3)
T2 construct: purchased Reaction Biology Corporation (Kinase HotSpot)
In short: as §1

PKCb2 = target: T3, PKCb2 (Homo sapiens, UniProt P05771)
T3 construct: purchased Reaction Biology Corporation (Kinase HotSpot)
In short: as §1

FGFR3 = target: T4, FGFR3 (Homo sapiens, UniProt P22607)
T4 construct: purchased Reaction Biology Corporation (Kinase HotSpot)
T4 sequence (P22607 23-806): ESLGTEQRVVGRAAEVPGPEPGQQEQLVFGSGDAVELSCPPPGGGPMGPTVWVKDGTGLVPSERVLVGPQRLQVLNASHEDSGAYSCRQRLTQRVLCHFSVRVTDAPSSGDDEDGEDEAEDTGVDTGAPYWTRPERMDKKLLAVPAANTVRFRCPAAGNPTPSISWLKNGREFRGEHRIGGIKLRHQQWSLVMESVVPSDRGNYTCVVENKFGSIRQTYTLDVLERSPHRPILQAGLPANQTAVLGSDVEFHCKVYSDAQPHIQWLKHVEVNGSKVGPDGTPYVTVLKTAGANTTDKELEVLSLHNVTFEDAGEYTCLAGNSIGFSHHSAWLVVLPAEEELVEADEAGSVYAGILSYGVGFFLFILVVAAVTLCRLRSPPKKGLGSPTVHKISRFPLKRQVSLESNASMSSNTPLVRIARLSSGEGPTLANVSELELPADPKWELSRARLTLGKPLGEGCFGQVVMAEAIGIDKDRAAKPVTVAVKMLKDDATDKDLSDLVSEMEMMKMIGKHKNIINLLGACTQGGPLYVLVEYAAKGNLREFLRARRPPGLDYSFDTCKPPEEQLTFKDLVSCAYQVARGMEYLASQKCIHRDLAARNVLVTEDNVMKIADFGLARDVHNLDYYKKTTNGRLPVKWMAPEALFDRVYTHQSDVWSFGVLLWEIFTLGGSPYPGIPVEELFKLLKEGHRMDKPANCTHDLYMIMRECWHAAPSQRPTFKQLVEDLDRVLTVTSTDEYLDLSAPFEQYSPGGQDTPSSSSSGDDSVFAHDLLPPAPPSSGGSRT
In short: as §1

SIK3 = target: T5, SIK3 (Homo sapiens, UniProt Q9Y2K2)
T5 construct: purchased Reaction Biology Corporation (Kinase HotSpot)
T5 sequence (Q9Y2K2 whole entry): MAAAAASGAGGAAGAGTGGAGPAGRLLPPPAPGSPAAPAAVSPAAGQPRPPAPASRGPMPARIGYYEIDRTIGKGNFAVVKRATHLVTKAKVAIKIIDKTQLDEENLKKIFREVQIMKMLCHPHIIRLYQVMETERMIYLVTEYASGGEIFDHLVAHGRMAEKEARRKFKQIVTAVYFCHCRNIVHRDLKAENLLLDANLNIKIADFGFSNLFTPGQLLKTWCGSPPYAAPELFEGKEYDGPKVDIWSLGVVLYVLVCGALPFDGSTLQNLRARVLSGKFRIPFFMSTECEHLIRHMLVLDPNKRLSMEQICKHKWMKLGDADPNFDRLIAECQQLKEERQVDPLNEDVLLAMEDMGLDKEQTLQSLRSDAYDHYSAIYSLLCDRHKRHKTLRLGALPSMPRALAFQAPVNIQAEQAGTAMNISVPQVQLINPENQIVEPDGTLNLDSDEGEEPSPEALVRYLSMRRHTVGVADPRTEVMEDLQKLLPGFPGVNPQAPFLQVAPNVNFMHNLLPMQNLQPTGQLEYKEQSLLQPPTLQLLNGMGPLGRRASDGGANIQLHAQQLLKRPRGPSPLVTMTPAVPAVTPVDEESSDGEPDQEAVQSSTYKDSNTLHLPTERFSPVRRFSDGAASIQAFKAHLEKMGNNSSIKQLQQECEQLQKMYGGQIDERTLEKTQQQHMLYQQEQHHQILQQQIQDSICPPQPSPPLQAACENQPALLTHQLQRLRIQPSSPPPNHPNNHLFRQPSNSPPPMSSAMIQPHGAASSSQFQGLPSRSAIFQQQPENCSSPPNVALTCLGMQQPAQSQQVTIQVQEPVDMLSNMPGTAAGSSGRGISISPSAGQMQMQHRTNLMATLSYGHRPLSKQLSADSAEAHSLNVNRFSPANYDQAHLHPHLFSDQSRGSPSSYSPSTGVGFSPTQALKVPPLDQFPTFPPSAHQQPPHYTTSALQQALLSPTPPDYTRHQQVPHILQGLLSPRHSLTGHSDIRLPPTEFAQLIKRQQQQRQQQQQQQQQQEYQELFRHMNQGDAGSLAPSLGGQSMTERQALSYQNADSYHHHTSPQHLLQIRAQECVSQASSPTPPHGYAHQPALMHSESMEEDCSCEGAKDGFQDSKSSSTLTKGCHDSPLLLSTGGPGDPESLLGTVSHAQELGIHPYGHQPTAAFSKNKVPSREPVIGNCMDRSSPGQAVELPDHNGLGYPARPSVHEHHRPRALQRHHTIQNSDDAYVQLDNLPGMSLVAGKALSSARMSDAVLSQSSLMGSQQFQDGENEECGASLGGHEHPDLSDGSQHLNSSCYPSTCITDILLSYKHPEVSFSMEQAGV
In short: as §1

EPHA7 = target: T6, EPHA7 (Homo sapiens, UniProt Q15375)
T6 construct: purchased Reaction Biology Corporation (Kinase HotSpot)
In short: as §1

SRPK1 = target: T7, SRPK1 (Homo sapiens, UniProt Q96SB4)
T7 construct: purchased Reaction Biology Corporation (Kinase HotSpot)
In short: as §1

CDK16/cyclin Y (PCTAIRE) = target: T8, CDK16/cyclin Y (PCTAIRE) (Homo sapiens, UniProt Q00536)
T8 construct: purchased Reaction Biology Corporation (Kinase HotSpot)
In short: as §1

SIK2 = target: T9, SIK2 (Homo sapiens, UniProt Q9H0K1)
T9 construct: purchased Reaction Biology Corporation (Kinase HotSpot)
In short: as §1

HGK/MAP4K4 = target: T10, HGK/MAP4K4 (Homo sapiens, UniProt O95819)
T10 construct: purchased Reaction Biology Corporation (Kinase HotSpot)
In short: as §1

MST3/STK24 = target: T11, MST3/STK24 (Homo sapiens, UniProt Q9Y6E0)
T11 construct: purchased Reaction Biology Corporation (Kinase HotSpot)
In short: as §1

CDK2/cyclin E = target: T12, CDK2/cyclin E (Homo sapiens, UniProt P24941)
T12 construct: purchased Reaction Biology Corporation (Kinase HotSpot)
In short: as §1

PRKX = target: T13, PRKX (Homo sapiens, UniProt P51817)
T13 construct: purchased Reaction Biology Corporation (Kinase HotSpot)
In short: as §1

Aurora B = target: T14, Aurora B (Homo sapiens, UniProt Q96GD4)
T14 construct: purchased Reaction Biology Corporation (Kinase HotSpot)
In short: as §1

STK16 = target: T15, STK16 (Homo sapiens, UniProt O75716)
T15 construct: purchased Reaction Biology Corporation (Kinase HotSpot)
T15 sequence (O75716 whole entry): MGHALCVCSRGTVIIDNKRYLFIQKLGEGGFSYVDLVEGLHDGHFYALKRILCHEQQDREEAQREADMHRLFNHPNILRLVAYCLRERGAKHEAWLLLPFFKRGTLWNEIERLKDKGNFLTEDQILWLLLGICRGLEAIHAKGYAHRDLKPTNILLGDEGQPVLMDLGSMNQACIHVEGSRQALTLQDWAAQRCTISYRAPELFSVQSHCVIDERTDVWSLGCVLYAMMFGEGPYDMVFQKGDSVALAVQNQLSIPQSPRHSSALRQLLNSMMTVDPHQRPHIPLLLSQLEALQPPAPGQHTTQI
In short: as §1

ARAF = target: T16, ARAF (Homo sapiens, UniProt P10398)
T16 construct: purchased Reaction Biology Corporation (Kinase HotSpot)
In short: as §1

MYO3A = target: T17, MYO3A (Homo sapiens, UniProt Q8NEV4)
T17 construct: purchased Reaction Biology Corporation (Kinase HotSpot)
In short: as §1

STK32C/YANK3 = target: T18, STK32C/YANK3 (Homo sapiens, UniProt Q86UX6)
T18 construct: purchased Reaction Biology Corporation (Kinase HotSpot)
T18 sequence (Q86UX6 whole entry): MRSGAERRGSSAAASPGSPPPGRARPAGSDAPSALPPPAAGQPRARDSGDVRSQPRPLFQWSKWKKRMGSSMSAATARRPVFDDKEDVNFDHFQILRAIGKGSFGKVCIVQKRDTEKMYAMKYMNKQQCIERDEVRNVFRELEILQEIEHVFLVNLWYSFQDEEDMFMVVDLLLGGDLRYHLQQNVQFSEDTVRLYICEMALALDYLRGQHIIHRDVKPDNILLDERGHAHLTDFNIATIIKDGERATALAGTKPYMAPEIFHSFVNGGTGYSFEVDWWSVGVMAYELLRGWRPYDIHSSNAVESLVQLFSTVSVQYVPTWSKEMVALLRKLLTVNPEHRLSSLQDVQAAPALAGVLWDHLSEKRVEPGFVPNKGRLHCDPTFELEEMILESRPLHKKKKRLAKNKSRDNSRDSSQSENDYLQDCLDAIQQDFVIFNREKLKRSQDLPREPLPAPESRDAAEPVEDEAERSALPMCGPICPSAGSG
In short: as §1

MYO3b = target: T19, MYO3b (Homo sapiens, UniProt Q8WXR4)
T19 construct: purchased Reaction Biology Corporation (Kinase HotSpot)
In short: as §1

ALK1/ACVRL1 = target: T20, ALK1/ACVRL1 (Homo sapiens, UniProt P37023)
T20 construct: purchased Reaction Biology Corporation (Kinase HotSpot)
T20 sequence (P37023 22-503): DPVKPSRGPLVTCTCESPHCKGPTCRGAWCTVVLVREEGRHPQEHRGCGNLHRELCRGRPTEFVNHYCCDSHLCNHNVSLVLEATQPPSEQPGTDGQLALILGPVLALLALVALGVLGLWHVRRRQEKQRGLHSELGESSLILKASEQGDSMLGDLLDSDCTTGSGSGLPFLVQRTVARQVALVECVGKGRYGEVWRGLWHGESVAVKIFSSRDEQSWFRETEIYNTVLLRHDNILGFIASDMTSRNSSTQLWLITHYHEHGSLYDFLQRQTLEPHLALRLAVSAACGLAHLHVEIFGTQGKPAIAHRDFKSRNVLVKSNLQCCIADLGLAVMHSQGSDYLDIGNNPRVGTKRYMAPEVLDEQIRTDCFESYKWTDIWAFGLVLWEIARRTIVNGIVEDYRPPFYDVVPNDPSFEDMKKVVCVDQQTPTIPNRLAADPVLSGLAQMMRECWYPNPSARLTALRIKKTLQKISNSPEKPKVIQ
In short: as §1

GLK/MAP4K3 = target: T21, GLK/MAP4K3 (Homo sapiens, UniProt Q8IVH8)
T21 construct: purchased Reaction Biology Corporation (Kinase HotSpot)
In short: as §1

NLK = target: T22, NLK (Homo sapiens, UniProt Q9UBE8)
T22 construct: purchased Reaction Biology Corporation (Kinase HotSpot)
In short: as §1

DDR2 = target: T23, DDR2 (Homo sapiens, UniProt Q16832)
T23 construct: purchased Reaction Biology Corporation (Kinase HotSpot)
T23 sequence (Q16832 22-855): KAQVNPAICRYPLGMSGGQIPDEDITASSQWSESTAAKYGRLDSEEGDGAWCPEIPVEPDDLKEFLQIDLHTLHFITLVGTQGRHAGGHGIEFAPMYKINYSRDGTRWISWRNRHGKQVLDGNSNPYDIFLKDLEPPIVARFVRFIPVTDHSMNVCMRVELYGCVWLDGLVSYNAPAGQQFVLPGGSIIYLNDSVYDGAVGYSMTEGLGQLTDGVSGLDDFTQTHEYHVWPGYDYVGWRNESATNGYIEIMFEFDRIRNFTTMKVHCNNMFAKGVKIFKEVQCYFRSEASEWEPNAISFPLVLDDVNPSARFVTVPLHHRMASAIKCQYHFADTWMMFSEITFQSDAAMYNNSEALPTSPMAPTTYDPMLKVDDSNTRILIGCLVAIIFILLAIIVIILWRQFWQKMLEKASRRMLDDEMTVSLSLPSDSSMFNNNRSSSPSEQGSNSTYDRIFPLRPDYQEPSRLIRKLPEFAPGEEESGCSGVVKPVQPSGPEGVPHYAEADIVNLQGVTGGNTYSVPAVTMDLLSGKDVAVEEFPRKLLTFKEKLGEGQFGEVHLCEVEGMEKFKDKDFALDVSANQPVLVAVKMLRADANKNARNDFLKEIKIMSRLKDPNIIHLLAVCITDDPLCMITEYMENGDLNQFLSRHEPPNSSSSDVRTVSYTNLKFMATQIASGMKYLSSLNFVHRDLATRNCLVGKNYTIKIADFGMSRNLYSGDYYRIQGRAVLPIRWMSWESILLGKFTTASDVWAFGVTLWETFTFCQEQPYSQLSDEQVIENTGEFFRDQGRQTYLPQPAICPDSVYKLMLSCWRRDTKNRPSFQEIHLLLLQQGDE
In short: as §1

PKG2/PRKG2 = target: T24, PKG2/PRKG2 (Homo sapiens, UniProt Q13237)
T24 construct: purchased Reaction Biology Corporation (Kinase HotSpot)
T24 sequence (Q13237 whole entry): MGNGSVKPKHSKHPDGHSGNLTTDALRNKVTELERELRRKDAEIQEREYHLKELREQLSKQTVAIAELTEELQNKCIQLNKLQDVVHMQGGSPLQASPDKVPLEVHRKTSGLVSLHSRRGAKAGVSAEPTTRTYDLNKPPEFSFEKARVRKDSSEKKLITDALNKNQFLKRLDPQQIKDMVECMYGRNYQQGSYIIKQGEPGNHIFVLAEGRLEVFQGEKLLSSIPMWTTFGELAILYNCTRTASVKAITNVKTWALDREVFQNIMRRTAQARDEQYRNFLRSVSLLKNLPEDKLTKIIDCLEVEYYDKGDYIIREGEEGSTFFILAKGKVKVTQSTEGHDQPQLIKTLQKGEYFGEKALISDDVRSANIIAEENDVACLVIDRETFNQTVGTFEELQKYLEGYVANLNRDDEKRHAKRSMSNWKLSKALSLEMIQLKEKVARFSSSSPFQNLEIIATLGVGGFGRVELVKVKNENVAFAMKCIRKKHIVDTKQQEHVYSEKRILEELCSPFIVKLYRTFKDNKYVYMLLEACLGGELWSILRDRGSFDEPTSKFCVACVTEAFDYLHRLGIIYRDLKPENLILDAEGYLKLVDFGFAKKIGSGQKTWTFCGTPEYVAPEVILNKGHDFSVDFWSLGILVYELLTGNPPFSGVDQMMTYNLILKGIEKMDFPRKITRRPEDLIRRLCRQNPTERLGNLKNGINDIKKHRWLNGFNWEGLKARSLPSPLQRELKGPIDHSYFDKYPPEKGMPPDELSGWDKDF
In short: as §1

ERBB2/HER2 = target: T25, ERBB2/HER2 (Homo sapiens, UniProt P04626)
T25 construct: purchased Reaction Biology Corporation (Kinase HotSpot)
In short: as §1

ERK2/MAPK1 = target: T26, ERK2/MAPK1 (Homo sapiens, UniProt P28482)
T26 construct: purchased Reaction Biology Corporation (Kinase HotSpot)
In short: as §1

PAK1 = target: T27, PAK1 (Homo sapiens, UniProt Q13153)
T27 construct: purchased Reaction Biology Corporation (Kinase HotSpot)
In short: as §1

PKG1a = target: T28, PKG1a (Homo sapiens, UniProt Q13976)
T28 construct: purchased Reaction Biology Corporation (Kinase HotSpot)
In short: as §1

ULK1 = target: T29, ULK1 (Homo sapiens, UniProt O75385)
T29 construct: purchased Reaction Biology Corporation (Kinase HotSpot)
In short: as §1

Aurora A = target: T30, Aurora A (Homo sapiens, UniProt O14965)
T30 construct: purchased Reaction Biology Corporation (Kinase HotSpot)
In short: as §1

Cc1cnc(N[C@H]2CC[C@H](N)CC2)nc1-c1cnc2ccc(-c3ccccc3)cn12 [CDDD11-8]
remaining activity at 1 µM (LCK2/ICK): 62.4% | remaining activity at 1 µM (RIPK5): 93% | remaining activity at 1 µM (PKCb2): 121% | remaining activity at 1 µM (FGFR3): 92.8% | remaining activity at 1 µM (SIK3): 59.9% | remaining activity at 1 µM (EPHA7): 105% | remaining activity at 1 µM (SRPK1): 94% | remaining activity at 1 µM (CDK16/cyclin Y (PCTAIRE)): 57.4% | remaining activity at 1 µM (SIK2): 35.8% | remaining activity at 1 µM (HGK/MAP4K4): 32.8% | remaining activity at 1 µM (MST3/STK24): 103% | remaining activity at 1 µM (CDK2/cyclin E): 55.6% | remaining activity at 1 µM (PRKX): 77.4% | remaining activity at 1 µM (Aurora B): 89.6% | remaining activity at 1 µM (STK16): 75.2% | remaining activity at 1 µM (ARAF): 91.5% | remaining activity at 1 µM (MYO3A): 87.3% | remaining activity at 1 µM (STK32C/YANK3): 91.1% | remaining activity at 1 µM (MYO3b): 58.4% | remaining activity at 1 µM (ALK1/ACVRL1): 96.9% | remaining activity at 1 µM (GLK/MAP4K3): 9.75% | remaining activity at 1 µM (NLK): 83.4% | remaining activity at 1 µM (DDR2): 73.5% | remaining activity at 1 µM (PKG2/PRKG2): 87% | remaining activity at 1 µM (ERBB2/HER2): 101% | remaining activity at 1 µM (ERK2/MAPK1): 109% | remaining activity at 1 µM (PAK1): 106% | remaining activity at 1 µM (PKG1a): 61.7% | remaining activity at 1 µM (ULK1): 108% | remaining activity at 1 µM (Aurora A): 79.3%
